Measured values: article PMC7403315, “Cyclic peptide FXII inhibitor provides safe anticoagulation in a thrombosis model and in artificial lungs” (Nature Communications, 2020)
Several values for one entry are separate records, joined by “and”; a condition that tells them apart may be missing. Identical values can stand only once. Like-named read-outs stand apart in the source and are kept apart here. One block for each compound: values may come before it. Starred links: 1 amine or outer side, 2 acyl side, 3 side chain; linkers in the order of their positions; H or OH if unused. Positions of bridges follow the written chain, without caps; N, C: chain ends. Non-standard residues stand in square brackets, D forms with d. Residues, ends and D or L forms follow the SMILES beside them. TATA = O=C(CC[*:1])N1CN(C(=O)CC[*:2])CN(C(=O)CC[*:3])C1; Phe(4-F) = N[C@@H](Cc1ccc(F)cc1)C(=O)O; β3hR = N=C(N)NCCC[C@H](N)CC(=O)O

Assays:
Mouse α-FXIIa = target: T1, Mouse α-FXIIa (Mus musculus, UniProt Q80YC5); assay: FXIIa protease inhibition assay with fluorogenic substrate Boc-Gln-Gly-Arg-AMC; assay type: biochemical
T1 construct: Mouse α-FXIIa; purchased Molecular Innovations MFXIIA
T1 sequence (Q80YC5 355-597 limits assumed): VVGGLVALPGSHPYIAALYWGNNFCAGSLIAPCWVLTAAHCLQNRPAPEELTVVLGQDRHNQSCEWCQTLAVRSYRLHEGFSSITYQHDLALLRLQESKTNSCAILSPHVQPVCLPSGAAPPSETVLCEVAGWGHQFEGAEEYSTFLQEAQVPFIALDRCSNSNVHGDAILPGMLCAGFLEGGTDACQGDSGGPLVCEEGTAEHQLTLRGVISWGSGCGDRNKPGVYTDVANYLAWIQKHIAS
T1 sequence (Q80YC5 20-354 limits assumed): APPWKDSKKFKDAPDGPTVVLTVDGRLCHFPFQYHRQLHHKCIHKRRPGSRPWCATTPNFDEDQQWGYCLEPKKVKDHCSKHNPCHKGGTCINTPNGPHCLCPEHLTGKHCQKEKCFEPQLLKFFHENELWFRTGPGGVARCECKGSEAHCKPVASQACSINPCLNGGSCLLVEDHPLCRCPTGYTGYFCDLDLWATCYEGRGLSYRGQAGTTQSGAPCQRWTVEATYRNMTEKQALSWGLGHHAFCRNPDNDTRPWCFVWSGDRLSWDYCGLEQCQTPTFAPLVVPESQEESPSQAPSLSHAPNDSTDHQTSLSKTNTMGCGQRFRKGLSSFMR
In short: (§1)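 Mouse α-FXIIa or human β-FXIIa (0.4 nM final) was preincubated with bicyclic peptide for 10 min at 25 °C in Tris-Cl buffer with 1% DMSO. Residual activity was then read over 30 min with 50 µM Boc-Gln-Gly-Arg-AMC (ex 368/em 467 nm). IC50 came from sigmoidal fits, and Ki was derived by Cheng-Prusoff.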

human β-FXIIa = target: T2, human β-FXIIa (Homo sapiens, UniProt P00748); assay: as above; assay type: biochemical
T2 construct: human β-FXIIa (Molecular Innovations cat #); purchased Molecular Innovations HFXIIAB; host or cells: human blood
T2 sequence (P00748 373-615 limits assumed, other chains not shown): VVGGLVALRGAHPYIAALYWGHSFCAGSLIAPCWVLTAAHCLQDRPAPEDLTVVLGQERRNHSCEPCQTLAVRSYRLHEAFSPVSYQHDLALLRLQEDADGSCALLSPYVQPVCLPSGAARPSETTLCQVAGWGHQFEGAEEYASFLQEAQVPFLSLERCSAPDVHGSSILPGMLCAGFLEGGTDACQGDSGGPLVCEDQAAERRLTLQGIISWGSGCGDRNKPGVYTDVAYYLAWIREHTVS
In short: as §1

[1] = crude, coumarin labeled peptides, individual plates
[2] = inhibitor 0.488281 nM, 0.000488281 µM
[3] = inhibitor 1.95312 nM, 0.00195312 µM
[4] = inhibitor 3.90625 nM, 0.00390625 µM
[5] = inhibitor 7.8125 nM, 0.0078125 µM
[6] = inhibitor 15.625 nM, 0.015625 µM
[7] = inhibitor 0.976562 / 0.976563 nM, 0.000976563 µM

IC50 (Mouse α-FXIIa; [1]): 290 nM and 312 nM and 236 nM and 289 nM and 257 nM and 228 nM and 245 nM and 286 nM and 358 nM | Ki (Mouse α-FXIIa; purified peptide without coumarin label, read-out: Ki mouse FXIIa): 86 ± 9 nM | IC50 (human β-FXIIa; [1]): 18.4 nM and 23.5 nM and 23.3 nM and 27.9 nM | Residual activity of human FXIIa (human β-FXIIa; [2]): 96.6624% and 92.9553% | remaining activity at 0.000488281 µM (human β-FXIIa; inhibitor 0.488281 nM, read-out: Residual activity of human FXIIa): 98.6% | Residual activity of human FXIIa (human β-FXIIa; [3]): 84.5129% and 82.3772% | remaining activity at 0.00195312 µM (human β-FXIIa; inhibitor 1.95312 nM, read-out: Residual activity of human FXIIa): 85.8% | Residual activity of human FXIIa (human β-FXIIa; [4]): 70.1534% and 69.6521% | remaining activity at 0.00390625 µM (human β-FXIIa; inhibitor 3.90625 nM, read-out: Residual activity of human FXIIa): 75.7% | Residual activity of human FXIIa (human β-FXIIa; [5]): 55.0198% and 53.6523% | remaining activity at 0.0078125 µM (human β-FXIIa; inhibitor 7.8125 nM, read-out: Residual activity of human FXIIa): 59.1% | Residual activity of human FXIIa (human β-FXIIa; [6]): 36.7931% and 38.5109% | remaining activity at 0.015625 µM (human β-FXIIa; inhibitor 15.625 nM, read-out: Residual activity of human FXIIa): 39.2% | Residual activity of human FXIIa (human β-FXIIa; inhibitor 31.25 nM, 0.03125 µM): 21.9721% and 22.4384% | remaining activity at 0.03125 µM (human β-FXIIa; inhibitor 31.25 nM, read-out: Residual activity of human FXIIa): 24.9% | Residual activity of human FXIIa (human β-FXIIa; inhibitor 62.5 nM, 0.0625 µM): 12.1968% and 13.3118% | remaining activity at 0.0625 µM (human β-FXIIa; inhibitor 62.5 nM, read-out: Residual activity of human FXIIa): 14% | Residual activity of human FXIIa (human β-FXIIa; inhibitor 125 nM, 0.125 µM): 6.613% and 11.4379% | remaining activity at 0.125 µM (human β-FXIIa; inhibitor 125 nM, read-out: Residual activity of human FXIIa): 7.65% | remaining activity at […] (human β-FXIIa; inhibitor 250 nM, read-out: Residual activity of human FXIIa): 3.83% | Residual activity of human FXIIa (human β-FXIIa; inhibitor 500 nM, 0.5 µM): 2.542% and 2.502% | remaining activity at 0.5 µM (human β-FXIIa; inhibitor 500 nM, read-out: Residual activity of human FXIIa): 2.52% | Residual activity of human FXIIa (human β-FXIIa; [7]): 92.5507% and 90.2369% | remaining activity at 0.000976563 µM (human β-FXIIa; inhibitor 0.976562 / 0.976563 nM, read-out: Residual activity of human FXIIa): 96.2% | Ki (human β-FXIIa; purified peptide without coumarin label, read-out: Ki human FXIIa): 8.1 ± 0.7 nM
Compound: CC(C)C[C@@H]1NC(=O)[C@H](CCC(N)=O)NC(=O)[C@H](CCCNC(=N)N)NC(=O)[C@@H]2CSCCC(=O)N3CN(CN(C3)C(=O)CCSC[C@H](NC(=O)[C@@H](N)CCCNC(=N)N)C(=O)N[C@@H](Cc3ccccc3)C(=O)N[C@@H](CCCNC(=N)N)C(=O)N[C@@H](CC(C)C)C(=O)N3CCC[C@H]3C(=O)N2)C(=O)CCSC[C@@H](C(=O)N[C@@H](CCCNC(=N)N)C(N)=O)NC(=O)[C@H](CCCNC(=N)N)NC1=O [FXII618]

Compound: CC(C)C[C@@H]1NC(=O)[C@H](CCC(N)=O)NC(=O)[C@H](Cc2c[nH]cn2)NC(=O)[C@@H]2CSCCC(=O)N3CN(CN(C3)C(=O)CCSC[C@H](NC(=O)[C@@H](CO)NC(=O)[C@H](N)CCCNC(=N)N)C(=O)N[C@@H](Cc3ccc(F)cc3)C(=O)N[C@@H](CCCNC(=N)N)C(=O)N[C@@H](CC(C)C)C(=O)N3CCC[C@H]3C(=O)N2)C(=O)CCSC[C@@H](C(N)=O)NC(=O)C[C@H](CCCNC(=N)N)NC1=O [FXII900] (H-[dR][dS]C[Phe(4-F)]RLPCHQL[β3hR]C-NH2; linker 3-8-13 via TATA)
Ki (Mouse α-FXIIa): 0.45 ± 0.11 nM | Ki (human β-FXIIa): 0.37 ± 0.04 nM | Residual activity of human FXIIa (human β-FXIIa; inhibitor 0.030518 nM, 30.52 pM): 89.8015% | Residual activity of human FXIIa (human β-FXIIa; inhibitor 0.03125 nM, 31.25 pM): 91.2184% and 98.3306% | Residual activity of human FXIIa (human β-FXIIa; inhibitor 0.061035 nM, 61.04 pM): 87.3761% | Residual activity of human FXIIa (human β-FXIIa; inhibitor 0.0625 nM, 62.5 pM): 92.1225% and 95.5725% | Residual activity of human FXIIa (human β-FXIIa; inhibitor 0.12207 nM, 0.00012207 µM): 78.5763% | Residual activity of human FXIIa (human β-FXIIa; inhibitor 0.125 nM, 0.000125 µM): 82.8895% and 92.0812% | Residual activity of human FXIIa (human β-FXIIa; inhibitor 0.244141 nM, 0.000244141 µM): 65.9451% | Residual activity of human FXIIa (human β-FXIIa; [2]): 44.4485% | Residual activity of human FXIIa (human β-FXIIa; inhibitor 0.5 nM, 0.0005 µM): 54.1096% and 47.3759% | Residual activity of human FXIIa (human β-FXIIa; inhibitor 1 nM, 0.001 µM): 29.6346% and 29.527% | Residual activity of human FXIIa (human β-FXIIa; [3]): 9.983% and 4.833% | Residual activity of human FXIIa (human β-FXIIa; inhibitor 2 nM, 0.002 µM): 13.0658% and 11.4779% | Residual activity of human FXIIa (human β-FXIIa; [4]): 2.681% and 0.3074% | Residual activity of human FXIIa (human β-FXIIa; inhibitor 4 nM, 0.004 µM): 2.623% and 4.603% and 9.7% | Residual activity of human FXIIa (human β-FXIIa; [5]): 1.017% and -0.1178% | Residual activity of human FXIIa (human β-FXIIa; inhibitor 8 nM, 0.008 µM): 0.8848% and 2.033% and 3.493% | Residual activity of human FXIIa (human β-FXIIa; [6]): 1.594% and 0.3357% | Residual activity of human FXIIa (human β-FXIIa; [7]): 20.4026% | remaining activity at 30.52 pM (human β-FXIIa; read-out: Residual activity of human FXIIa, inhibitor 0.030518 nM): 92.8% | remaining activity at 31.25 pM (human β-FXIIa; read-out: Residual activity of human FXIIa, inhibitor 0.03125 nM): 90.7% | remaining activity at 61.04 pM (human β-FXIIa; read-out: Residual activity of human FXIIa, inhibitor 0.061035 nM): 102% | remaining activity at 62.5 pM (human β-FXIIa; read-out: Residual activity of human FXIIa, inhibitor 0.0625 nM): 89.8% | remaining activity at 0.00012207 µM (human β-FXIIa; read-out: Residual activity of human FXIIa, inhibitor 0.12207 nM): 77.3% | remaining activity at 0.000125 µM (human β-FXIIa; read-out: Residual activity of human FXIIa, inhibitor 0.125 nM): 80.4% | remaining activity at 0.000244141 µM (human β-FXIIa; read-out: Residual activity of human FXIIa, inhibitor 0.244141 nM): 66.6% | remaining activity at 0.000488281 µM (human β-FXIIa; read-out: Residual activity of human FXIIa, inhibitor 0.488281 nM): 51.8% | remaining activity at 0.0005 µM (human β-FXIIa; read-out: Residual activity of human FXIIa, inhibitor 0.5 nM): 46.7% | remaining activity at 0.001 µM (human β-FXIIa; read-out: Residual activity of human FXIIa, inhibitor 1 nM): 24.6% | remaining activity at 0.002 µM (human β-FXIIa; read-out: Residual activity of human FXIIa, inhibitor 2 nM): 8.92% | remaining activity at 0.03125 µM (human β-FXIIa; read-out: Residual activity of human FXIIa, inhibitor 31.25 nM): 0% | remaining activity at 0.000976563 µM (human β-FXIIa; read-out: Residual activity of human FXIIa, inhibitor 0.976562 / 0.976563 nM): 29.9%
